Molecules are shown by their SMILES. In brackets after ≈: the same amount, converted by molar mass. Several values for one entry are separate records, joined by “and”; a condition that tells them apart may be missing. Equal entries are not always repeated. Bounds are passed on as bounds.

Some test systems named below: Listeria monocytogenes; Candida albicans; Escherichia coli UB1005; Staphylococcus aureus MR; Escherichia coli; Escherichia coli TOP 10.
What all share (assay): ≥ marks a high value that may be exact or a test limit, other limits are often not marked, values filed in µg/mL are converted to µM
For test [1], the system named is Salmonella enterica subsp. enterica serovar Enteritidis 706 RIVM.
The test system of test [2] is Salmonella enterica subsp. enterica serovar Typhimurium ATCC 14028.
Test [3] has as its system Escherichia coli ATCC 35218.
Test [4] concerns Pseudomonas aeruginosa RP73.
In test [5] the test system is Escherichia coli ATCC 25922.
Test [6] deals with Staphylococcus aureus WKZ2.
Test [7] has as its system Enterococcus faecalis ATCC 29212.
Test [8] has as its system Enterococcus faecalis NCTC 12203.
Test [9] has as its system Staphylococcus epidermidis.
Test [10] has as its system Pseudomonas aeruginosa 919.
Test [11] concerns Pseudomonas aeruginosa 253.
In test [12] the test system is Mycobacterium tuberculosis H37Rv.
Test [13] concerns Staphylococcus aureus ATCC 25923.
Test [14] has as its system Salmonella enterica serovar Typhimurium.
The subject of test [15] is Pseudomonas aeruginosa PAO1.
The test system of test [16] is Staphylococcus aureus ATCC 29213.
In test [17] the test system is Pseudomonas aeruginosa H103.
Test [18] concerns Pseudomonas aeruginosa 910.

Broadly, the MIC is the least concentration at which growth counts as inhibited. Read a high MIC as weaker potency. As for `CC[C@H](C)[C@H](NC(=O)[C@@H]1CCCN1)C(=O)N[C@@H](CCSC)C(=O)N[C@@H](Cc1ccc(O)cc1)C(=O)N[C@@H](CCCCN)C(=O)N[C@H](C(=O)N1CCC[C@H]1C(=O)N[C@@H](CC(C)C)C(=O)N[C@H](C(=O)N[C@@H](CCCN=C(N)N)C(=O)N[C@@H](CCCCN)C(=O)N[C@@H](CCCCN)C(=O)N[C@@H](CO)C(=O)N[C@@H](CC(C)C)C(=O)N[C@@H](CCCN=C(N)N)C(=O)N[C@@H](CCCN=C(N)N)C(=O)N[C@H](C(=O)N[C@@H](CC(C)C)C(=O)N[C@@H](CO)C(=O)N[C@@H](CCC(=O)O)C(=O)N[C@@H](CCCN=C(N)N)C(=O)NCC(=O)N[C@@H](CC(C)C)C(=O)N[C@@H](CC(C)C)C(=O)N[C@@H](CCCCN)C(=O)N[C@@H](CC(=O)O)C(=O)O)[C@@H](C)O)[C@@H](C)CC)C(C)C` [PIMYKVPLIRKKSLRRTLSERGLLKD], the MIC in the test with Listeria monocytogenes was not below 50 µM; in test [1], not below 50 µM; in test [2], more than 12.5 µM; in [3] it was 25 µM (≈ 77.8 µg/mL); in test [4], 12.5 µM (≈ 38.9 µg/mL); in [5], 25 µM (≈ 77.8 µg/mL). The MIC in test [6] stood at 25 µM (≈ 77.8 µg/mL); in [7], 50 µM (≈ 156 µg/mL).

Take `CC[C@H](C)[C@H](NC(=O)[C@H](CCCN=C(N)N)NC(=O)[C@H](Cc1c[nH]c2ccccc12)NC(=O)[C@H](CCCN=C(N)N)NC(=O)[C@@H](N)CCCN=C(N)N)C(=O)N[C@H](C(=O)N[C@H](C(=O)N[C@H](C(=O)N[C@@H](CCCN=C(N)N)C(=O)N[C@H](C(=O)N[C@@H](CCCN=C(N)N)C(=O)N[C@@H](CCCN=C(N)N)C(=O)O)C(C)C)[C@@H](C)CC)C(C)C)C(C)C` [RRWRIVVIRVRR]: the MIC in [8] is 1.2 µM (≈ 2 µg/mL); against Candida albicans, 2.4 µM (≈ 4 µg/mL); in test [9], 0.12 µM and 0.3 µM; against Escherichia coli UB1005, 0.601 µM (≈ 1 µg/mL); in test [10], 16 µM (≈ 26.6 µg/mL); in [11], 8 µM (≈ 13.3 µg/mL). Also, the MIC in [12] amounted to 1.92 µM (≈ 3.2 µg/mL); in the test on Staphylococcus aureus MR, 1.2 µM (≈ 2 µg/mL); in [13] it was 4 µM (≈ 6.66 µg/mL); in test [14], 2.4 µM (≈ 4 µg/mL); in [15], 8 µM (≈ 13.3 µg/mL); in [16] it was 1.2 µM (≈ 2 µg/mL). The MIC was determined as 1.2 µM (≈ 2 µg/mL) in test [17]; 16 µM (≈ 26.6 µg/mL) in [18]; 2 µM (≈ 3.33 µg/mL) in test [5]; 1.2 µM (≈ 2 µg/mL) in the test on Escherichia coli; 2.4 µM (≈ 4 µg/mL) in test [7].

Regarding `CC[C@H](C)[C@H](NC(=O)[C@H](CCCCN)NC(=O)[C@H](CO)NC(=O)[C@@H](NC(=O)[C@@H](NC(=O)[C@H](CC(N)=O)NC(=O)[C@H](CCCCN)NC(=O)[C@H](Cc1ccccc1)NC(=O)[C@H](C)NC(=O)[C@@H]1CCCN1C(=O)[C@H](CC(C)C)NC(=O)[C@@H](N)Cc1ccccc1)C(C)C)[C@@H](C)CC)C(=O)N[C@@H](CC(C)C)C(=O)N[C@@H](CCCCN)C(=O)N[C@@H](C)C(=O)N[C@@H](CC(C)C)C(=O)N[C@@H](CCCCN)C(=O)N[C@@H](CCCCN)C(=O)N[C@@H](CCCCN)C(=O)N[C@H](C(N)=O)C(C)C` [FLPAFKNVISKILKALKKKV], the MIC in the test on Escherichia coli TOP 10 turned out to be 5.47 µM (≈ 12.5 µg/mL).

The values above are taken from DBAASP.
